Non-standard residues stand in square brackets, D forms with d. No end group written: not given here. Cit = NC(=O)NCCC[C@H](N)C(=O)O; Nle = CCCC[C@H](N)C(=O)O
B1: WQRHI (SEQ ID NO:33) (peptide)
peptide: WQRHI
B2: WQRHGL (SEQ ID NO:9) (peptide)
peptide: WQRHGL
B3: WQRHAI (SEQ ID NO:11) (peptide)
peptide: WQRHAI
B4: FQRHGI (SEQ ID NO:29) (peptide)
peptide: FQRHGI
B5: WNRHGI (SEQ ID NO:12) (peptide)
peptide: WNRHGI
B6: WQRHGV (SEQ ID NO:10) (peptide)
peptide: WQRHGV
B7: WQ(Cit)HGI (SEQ ID NO:27) (peptide)
peptide: WQ[Cit]HGI
B8: WQRAGI (SEQ ID NO:28) (peptide)
peptide: WQRAGI
B9: MWRAWQ (SEQ ID NO:5) (peptide)
peptide: MWRAWQ
B10: MWRGGQ (SEQ ID NO:26) (peptide)
peptide: MWRGGQ
B11: MW(Cit)GWQ (SEQ ID NO:25) (peptide)
peptide: MW[Cit]GWQ
B12: MWRWQ (SEQ ID NO:6) (peptide)
peptide: MWRWQ
B13: GWRGWQ (SEQ ID NO:8) (peptide)
peptide: GWRGWQ
B14: MFRGWQ (SEQ ID NO:21) (peptide)
peptide: MFRGWQ
B15: MWRGWN (SEQ ID NO:22) (peptide)
peptide: MWRGWN
B16: MWRGFQ (SEQ ID NO:7) (peptide)
peptide: MWRGFQ
B17: (NorL)WRGWQ (SEQ ID NO:23) (peptide)
peptide: [Nle]WRGWQ

Molecular target: human polyclonal IgG (human)
Test: batch incubation of peptide-Toyopearl resin with human IgG, Bradford of unbound IgG; mg IgG bound relative to WQRHGI
Conditions: not given

% Binding [%]	Molecule
86.9	B1
99.1	B2
95.4	B3
37.2	B4
77.4	B5
96	B6
0.95	B7
62.8	B8

Tested on: host cell protein (HCP)
Test: not given
Conditions: literature value; cited from earlier work

Molecule	HCP LRV
Ac-HW[Cit]GWV	2.07

Tested on: human polyclonal IgG in CHO-S cell culture fluid
Test: Static purification of IgG from CHO cell culture supernatant on peptide-Toyopearl resins, SDS-PAGE densitometry
Conditions: Gel A, lane FT (flow-through)
Description: (§1) Measurement of IgG binding by peptide-based chromatographic adsorbents: For initial studies, 35 mg of MWRGWQ (SEQ ID NO:2)-Toyopearl, RHLGWF (SEQ ID NO:3)-Toyopearl, WQRHGI (SEQ ID NO:1)-Toyopearl, GWLHQR (SEQ ID NO:4)-Toyopearl, and HWRGWV (SEQ ID NO:18)-Toyopearl (control) resins were equilibrated in PBS pH 7.4, reaching a swollen volume of 0.1 mL, and subsequently incubated with 1 mg/mL IgG in 0.205 mg/mL CHO cell culture supernatant for 30 minutes. The resins were subsequently washed several times with PBS to remove non-specifically bound proteins. Elution was performed with 100 mM glycine buffer pH 2.5. Flowthrough and elution fractions were collected and analyzed by SDS PAGE under reducing conditions. The resulting gels were stained with Coomassie staining. Further, 25 mg of the adsorbents MWRGWQ (SEQ ID NO:2)-Toyopearl, NIFRGWQ (SEQ ID NO:21)-Toyopearl, MWRAWQ (SEQ ID NO:5)-Toyopearl, MWRGFQ (SEQ ID NO:7)-Toyopearl, MWRGWN (SEQ ID NO:22)-Toyopearl, (NorL) WRGWQ (SEQ ID NO:23)-Toyopearl, MGRGWQ (SEQ ID NO:24)-Toyopearl, MWRWQ (SEQ ID NO:6)-Toyopearl, MWRGGQ (SEQ ID NO:26)-Toyopearl, GWRGWQ (SEQ ID NO:8)-Toyopearl, WQRHGI (SEQ ID NO:1)-Toyopearl, WNRHGI (SEQ ID NO:12)-Toyopearl, WQRAGI (SEQ ID NO:28)-Toyopearl, WQRHAI (SEQ ID NO:11)-Toyopearl, WQRHGL (SEQ ID NO:9)-Toyopearl, FQRHGI (SEQ ID NO:29)-Toyopearl, and WQRHGV (SEQ ID NO:10)-Toyopearl resins were equilibrated in PBS pH 7.4, reaching a swollen volume of 0.1 mL, and subsequently incubated with 1 mg/mL IgG in PBS at pH 7.4 for 30 minutes. The amount of unbound IgG in the supernatant samples was quantified by Bradford assay and utilized to determine the IgG binding % by the peptide variants.
Characterization of IgG-binding peptide variants WQRHGI (SEQ ID NO:1), MWRGWQ (SEQ ID NO:2), RHLGWF (SEQ ID NO:3), and GWLHQR (SEQ ID NO:4) in competitive conditions: The four selected sequence variants were tested for their ability to purify human IgG from a CHO cell culture supernatant and found largely to mirror their in silico predictions. Even though they seemed to underperform in silico, RHLGWF (SEQ ID NO:3) and GWLHQR (SEQ ID NO:4) were tested alongside WQRHGI (SEQ ID NO:1) and MWRGWQ (SEQ ID NO:2) in these conditions in order to confirm their ability to bind IgG and examine their selectivity as predicted in silico. The feedstock was prepared by spiking human polyclonal IgG into a clarified null CHO-S cell culture fluid to obtain an IgG concentration of 1 mg/mL and a CHO HCP concentration of 0.205 mg/mL. An aliquot of 500 μL was loaded onto each peptide adsorbent in static conditions for 30 min. Following a washing step with PBS to remove loosely bound proteins, a first elution step was conducted using 0.1 M glycine buffer pH 2.5 to remove all bound proteins. Flow through fractions and pH 2.5 elution fractions were loaded neat and analyzed by SDS PAGE (FIGS. 6A-6B). The values of IgG purity in the eluted fractions were determined by densitometric analysis of the corresponding lanes on the gels, and are reported in Table 9.

Molecule	% Purity (IgG over total proteins) [%]
RHLGWF	100.00

Same assay, conditions: Gel A, lane R (pH 2.5)

Molecule	% Purity (IgG over total eluted proteins) [%]
RHLGWF	52.28

Same assay, conditions: competitive conditions, CHO cell culture supernatant

Molecule	IgG yield
RHLGWF	high IgG yield

Same assay, conditions: competitive conditions, in vitro

Molecule	selectivity for IgG over HCPs
RHLGWF	non-selective

Molecular target: human polyclonal IgG (human)
Test: batch incubation of peptide-Toyopearl resin with human IgG, Bradford of unbound IgG; mg IgG bound relative to MWRGWQ
Conditions: not given

% Binding [%]	Molecule
97	B9
26	B10
0.48	B11
91.5	B12
78.4	B13
56.8	B14
18.9	B15
89.2	B16
74.7	B17

Tested on: human IgG
Test: not given
Assay type: binding
Conditions: peptide on Toyopearl AF-amino-650M, 30 min, room temperature
Description: as §1
A limited library of residue-by-residue changes confirmed the importance of each residue in peptides WQRHGI (SEQ ID NO:1) and MWRGWQ (SEQ ID NO:2) in reducing the binding energy between the peptide and the IgG target. […] This was accomplished by designing and constructing an ensemble of 20 variants of peptides WQRHGI (SEQ ID NO:1) and MWRGWQ (SEQ ID NO:2). Selected residues in positions 1-6 were mutated. The peptide variants were synthesized directly on Toyopearl AF-amino-650M resin via Fmoc/tBu chemistry. The resulting adsorbents were incubated with a solution of human IgG at 2 mg/mL at a ratio of 1 mL of resin per 3.5 mL of solution for 30 min at room temperature. The residual concentration of IgG in solution was determined by Bradford concentration assay of the supernatants and utilized to calculate the amounts of bound IgG per volume of resin; Table 7 reports the % binding, defined as mg IgG bound by variant/mg IgG bound by original sequence (either WQRHGI (SEQ ID NO:1) or MWRGWQ (SEQ ID NO:2))×100%, of each sequence variant.

% Binding (mg IgG bound by variant/mg IgG bound by original sequence × 100%)	Molecule
0.48%	MW(Cit)GWQ (MW[Cit]GWQ) [MWχGWQ]
37.18%	FQRHGI
77.43%	WNRHGI
18.90%	MWRGWN
74.66%	(NorL)WRGWQ ([Nle]WRGWQ) [ΛWRGWQ, Λ represents Nor-Leucine]
96.04%	WQRHGV
89.19%	MWRGFQ [MWRGEQ]
0.95%	WQ(Cit)HGI (WQ[Cit]HGI) [WQχHGI]
26.00%	MWRGGQ
95.43%	WQRHAI
78.37%	GWRGWQ
96.96%	MWRAWQ
Undetected	MGRGWQ
62.80%	WQRAGI
91.55%	MWRWQ
99.09%	WQRHGL
56.75%	MFRGWQ
86.89%	WQRHI

— US20230399358A1, “IMMUNOGLOBULIN PURIFICATION PEPTIDES AND THEIR USE” (North Carolina State University, priority 2019, published 2023)
